From patent publication US20240217951A1, “PCSK9 INHIBITORS AND METHODS OF USE THEREOF” (AstraZeneca AB, priority 2022, published 2024)

How the values were obtained:
[1] = molecular target: T1, potassium ion channel hERG (human Ether-á-go-go-Related Gene) (Homo sapiens, UniProt Q12809); test: Assay 5 - hERG assay (SyncroPatch 384PE patch clamp, CHO cells); assay type: cell-based; details: geometric mean; CHO cells over-expressing hERG; read-out: Assay 5 (hERG Hu CHO IF EPh CR-Syncro) GMean IC50
T1 construct: expressed in transfected cells; host or cells: Chinese hamster ovary K1 (CHO)
Procedure, shortened: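 Automated high-throughput patch clamp on CHO-K1 cells overexpressing hERG at room temperature, KF/KCl internal with escin, NMDG-containing external at pH 7.4. Six-point cumulative compound addition, 0.33% DMSO final; wells kept only with seal >30 MΩ, Z′ >0.4 and current >0.2 nA.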

[2] = molecular target: GSK3β (Glycogen synthase kinase-3 beta) (Homo sapiens, UniProt P49841); test: Assay 6 - GSK3β assay (ThermoFisher Z-Lyte); assay type: biochemical; details: geometric mean; ATP Conc: 10 μM; read-out: Assay 6 (GSK3β FRET-Z-Lyte CR) GMean IC50 (μM) ATP Conc: 10
Procedure, shortened: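 Z-Lyte fluorescence kinase assay with 0.22-0.92 ng GSK3β and 2 μM Ser/Thr 09 peptide in 50 mM HEPES pH 7.5, 10 mM MgCl2, 1 mM EGTA, 0.01% BRIJ-35. Kinase reaction 60 min at room temperature, then 60 min development. 10-point 3-fold titration from 10 μM in 1% DMSO, fitted to a sigmoidal dose-response curve.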

PCSK9 [3] = molecular target: T2, PCSK9 (Homo sapiens, UniProt Q8NBP7, G670E/V474I); test: biochemical
PCSK9 [4] = molecular target: T2, PCSK9; test: Assay 3 - PCSK9 LDL-C uptake assay in HepG2 cells; assay type: cell-based; set-up: TEV cleavage site (C); His6 (C); host or cells: added to HepG2 cells (ATCC #HB-8065); details: 125 nM PCSK9, pHrodo Red-LDL, read-out: Assay 3 LDL uptake potency
Excerpt: Assay 3—PCSK9 LDL-C Uptake Assay
This assay measures for PCSK9 antagonist activity based on a test compound's capacity to restore LDL-C-uptake in HepG2 cells. The assay is based on exogenous PCSK9 and LDL-C complexed with a pH-sensitive dye. Outside the cells, at neutral pH, the pHrodo Red-LDL is dimly fluorescent but upon LDLR mediated endocytosis it fluoresces brightly. PCSK9 traffics the LDLR to intracellular degradation and reduces uptake of LDL-C. Inhibition of PCSK9 reduces LDLR degradation and the increased LDL-C uptake is quantified by fluorescence microscopy.
Preparation of Assay Reagents
Cell medium: MEM supplemented with 10% FBS, 1×NEAA and Sodium Pyruvate Assay medium: OptiMem supplemented with penicillin/streptomycin
Cells: HepG2 (ATCC #HB-8065)
Step by Step Protocol for Running the Assay:
• 1. Cryopreserved HepG2 cells were thawed in assay medium and centrifuged for 5 min at 250 g. Supernatant was discarded and the cell pellet resuspended in cell medium and counted with a Nucleocounter. Cells were again centrifuged 5 min at 250 g and the pellet was resuspended to 500000 cells/mL in assay medium. • 2. 20 μL of above cell mix was dispensed into black pclear TC treated 384 well plates with Multidrop Combi and left at room temperature for 20 minutes. • 3. Plates were incubated at 37° C., 5% CO2 for 24 h
• 1. Test compounds were prepared in concentration response in DMSO with a half-log dilution factor in DMSO in Echo 384 LDV plates starting at 10 mM. • 2. 30 nL of above test compounds were dispensed with Echo 655 to cells for a top concentration of 10 μM • 3. 10 μL PCSK9 in assay medium was dispensed to cells with Multidrop Combi for 125 nM final concentration in the wells. • 4. Plates were incubated at 37° C., 5% CO2 for 24 h
• 1. 10 μL pHrodo Red-LDL in assay medium was dispensed to cells with Multidrop Combi for 6 μg/mL • 2. Plates were incubated at 37° C., 5% CO2 and imaged with the Incucyte S3 after 4 h and 24 h
Image data was processed using Incucyte 2021, a software to identify cells and red fluorescent intensity. Screener was used to further process data. Data was normalized as % effect of the signal between median values of the on-plate controls of DMSO and 100 nM Evolocumab according to the formula % effect=−100*(x−DMSO)/(Evolocumab−DMSO) where x equals the measured signal. Concentration response data of the normalized values were fitted using a four-parameter logistic fit.

Sequence of GSK3β (Glycogen synthase kinase-3 beta) (P49841 whole entry): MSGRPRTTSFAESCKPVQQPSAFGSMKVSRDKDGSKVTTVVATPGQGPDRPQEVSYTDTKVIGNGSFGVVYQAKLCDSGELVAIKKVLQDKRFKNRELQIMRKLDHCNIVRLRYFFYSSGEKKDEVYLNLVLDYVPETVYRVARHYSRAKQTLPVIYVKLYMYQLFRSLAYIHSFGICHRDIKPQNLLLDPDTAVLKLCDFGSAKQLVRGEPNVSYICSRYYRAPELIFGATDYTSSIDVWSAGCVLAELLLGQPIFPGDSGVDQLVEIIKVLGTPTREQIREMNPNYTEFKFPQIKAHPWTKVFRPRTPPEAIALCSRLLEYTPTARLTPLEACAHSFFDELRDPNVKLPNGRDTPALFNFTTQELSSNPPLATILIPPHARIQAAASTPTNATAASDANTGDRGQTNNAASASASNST
T2 sequence (Q8NBP7 with tags, fused parts or gaps V474I/G670E): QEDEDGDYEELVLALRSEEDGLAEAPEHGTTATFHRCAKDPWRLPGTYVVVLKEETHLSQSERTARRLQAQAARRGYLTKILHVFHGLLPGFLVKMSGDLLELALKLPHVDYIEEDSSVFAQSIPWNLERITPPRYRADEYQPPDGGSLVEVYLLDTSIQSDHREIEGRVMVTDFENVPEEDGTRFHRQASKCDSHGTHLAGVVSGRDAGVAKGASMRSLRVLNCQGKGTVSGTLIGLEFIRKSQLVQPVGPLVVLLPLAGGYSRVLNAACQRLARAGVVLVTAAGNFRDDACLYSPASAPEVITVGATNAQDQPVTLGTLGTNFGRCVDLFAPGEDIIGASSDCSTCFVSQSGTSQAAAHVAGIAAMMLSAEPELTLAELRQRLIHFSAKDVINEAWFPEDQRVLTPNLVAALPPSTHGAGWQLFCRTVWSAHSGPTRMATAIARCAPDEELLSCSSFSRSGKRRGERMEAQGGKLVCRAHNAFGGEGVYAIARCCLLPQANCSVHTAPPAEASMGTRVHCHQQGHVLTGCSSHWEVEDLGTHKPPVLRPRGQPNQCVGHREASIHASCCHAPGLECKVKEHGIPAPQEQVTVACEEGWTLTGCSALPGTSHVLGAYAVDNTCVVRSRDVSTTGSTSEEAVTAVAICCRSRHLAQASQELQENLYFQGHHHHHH
T1 sequence (Q12809 whole entry): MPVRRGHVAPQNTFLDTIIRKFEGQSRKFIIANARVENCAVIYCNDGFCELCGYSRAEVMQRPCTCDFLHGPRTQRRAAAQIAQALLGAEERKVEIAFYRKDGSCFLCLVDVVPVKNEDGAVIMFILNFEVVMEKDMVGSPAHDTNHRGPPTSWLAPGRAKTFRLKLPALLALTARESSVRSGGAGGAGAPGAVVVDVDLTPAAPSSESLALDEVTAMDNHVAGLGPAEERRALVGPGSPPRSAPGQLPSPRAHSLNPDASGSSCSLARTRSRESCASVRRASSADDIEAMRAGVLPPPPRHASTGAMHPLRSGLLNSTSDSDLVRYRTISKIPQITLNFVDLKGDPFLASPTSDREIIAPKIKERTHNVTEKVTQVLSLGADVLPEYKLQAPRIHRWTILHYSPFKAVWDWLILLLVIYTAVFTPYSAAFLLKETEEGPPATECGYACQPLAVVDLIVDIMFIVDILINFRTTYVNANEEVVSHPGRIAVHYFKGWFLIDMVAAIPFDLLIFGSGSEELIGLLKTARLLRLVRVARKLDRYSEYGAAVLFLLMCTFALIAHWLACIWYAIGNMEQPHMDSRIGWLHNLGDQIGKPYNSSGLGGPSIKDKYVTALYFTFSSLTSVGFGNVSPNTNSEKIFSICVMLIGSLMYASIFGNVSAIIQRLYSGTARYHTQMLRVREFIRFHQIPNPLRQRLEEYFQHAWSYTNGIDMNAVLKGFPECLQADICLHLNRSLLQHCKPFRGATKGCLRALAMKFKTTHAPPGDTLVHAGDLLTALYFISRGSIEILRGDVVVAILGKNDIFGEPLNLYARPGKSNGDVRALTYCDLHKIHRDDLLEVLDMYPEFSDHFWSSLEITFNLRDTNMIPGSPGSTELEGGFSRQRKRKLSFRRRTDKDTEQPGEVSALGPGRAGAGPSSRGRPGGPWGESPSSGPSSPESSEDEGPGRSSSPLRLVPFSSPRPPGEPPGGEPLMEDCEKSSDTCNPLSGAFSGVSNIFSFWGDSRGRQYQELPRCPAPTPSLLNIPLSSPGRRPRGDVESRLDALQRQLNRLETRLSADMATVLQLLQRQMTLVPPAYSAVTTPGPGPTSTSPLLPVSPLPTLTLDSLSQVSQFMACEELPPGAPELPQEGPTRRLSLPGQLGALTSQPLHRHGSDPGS

SMILES | IC50 [1] | IC50 [2] | IC50 (PCSK9 [3]) | EC50 (PCSK9 [4])
Cc1cccn(-c2ccc(N[C@H]3CC[C@H](Nc4cnc(OC(F)F)cn4)C3)nc2)c1=O [Example 84, 6′-(((1S,3S)-3-((5-(Difluoromethoxy)pyrazin-2-yl)amino)cyclopentyl)amino)-3-methyl-2H-[1,3′-bipyridin]-2-one] | 6900 nM | > 10 µM | 11 nM | 700 nM
Cc1cnc(N[C@H]2CC[C@H](Nc3ccc(-n4c(=O)n(C)c5cc(C#N)cnc54)cn3)C2)cn1 [Example 218, 1-Methyl-3-(6-(((1S,3S)-3-((5-methylpyrazin-2-yl)amino)cyclopentyl)amino)pyridin-3-yl)-2-oxo-2,3-dihydro-1H-imidazo[4,5-b]pyridine-6-carbonitrile] | 22500 nM | > 10 µM | 5.4 nM | 300 nM
Cc1ncc(N[C@H]2CC[C@H](Nc3ccc(-n4cc(C(=O)O)ccc4=O)cn3)C2)nc1C [Example 14, 6′-(((1S,3S)-3-((5,6-Dimethylpyrazin-2-yl)amino)cyclopentyl)amino)-2-oxo-2H-[1,3′-bipyridine]-5-carboxylic acid] | > 40000 nM | > 10 µM | 52 nM | 200 nM
Cc1ncc(N[C@H]2CC[C@H](Nc3ccc(-n4cccc(C#N)c4=O)cn3)C2)nc1C [Example 23, 6′-(((1S,3S)-3-((5,6-Dimethylpyrazin-2-yl)amino)cyclopentyl)amino)-2-oxo-2H-[1,3′-bipyridine]-3-carbonitrile] | 35900 nM | > 10 µM | 8.8 nM | 700 nM
O=c1[nH]c2ccccc2n1-c1ccc(N[C@H]2CC[C@H](Nc3cnc(Cl)cn3)C2)nc1 [Example 31, 1-(6-(((1S,3S)-3-((5-Chloropyrazin-2-yl)amino)cyclopentyl)amino)pyridin-3-yl)-1,3-dihydro-2H-benzo[d]imidazol-2-one] | 8200 nM | > 10 µM | 3.7 nM | 200 nM
Cc1cnc(N[C@H]2CC[C@H](Nc3ccc(-n4cc(CS(C)(=O)=O)ccc4=O)cn3)C2)cn1 [Example 259, 6′-(((1S,3S)-3-((5-Methylpyrazin-2-yl)amino)cyclopentyl)amino)-5-((methylsulfonyl)methyl)-2H-[1,3′-bipyridin]-2-one] | > 40100 nM | > 10 µM | 43 nM | > 600 nM
Cc1ncc(N[C@H]2CC[C@H](Nc3ccc(-n4c(=O)n(C)c5ccccc54)cn3)C2)nc1C [Example 11, 1-(6-(((1S,3S)-3-((5,6-Dimethylpyrazin-2-yl)amino)cyclopentyl)amino)pyridin-3-yl)-3-methyl-1,3-dihydro-2H-benzo[d]imidazol-2-one] | 20200 nM | > 10 µM | 3.2 nM | 300 nM
O=c1c(Cl)cccn1-c1ccc(N[C@H]2CC[C@H](Nc3cnc(C4CC4)cn3)C2)nc1 [Example 108, 3-Chloro-6′-(((1S,3S)-3-((5-Cyclopropylpyrazin-2-yl)amino)cyclopentyl)amino)-2H-[1,3′-bipyridin]-2-one] | 12700 nM | > 10 µM | 3.4 nM | 400 nM
